The source of these data is patent US12338262B2 (Forward Therapeutics, Inc., priority 2022, dated 2025).

Some results are limits rather than exact numbers.

The target of this experiment is TNF-α (Homo sapiens, UniProt P01375). The experiment is described as follows: TNF-α Induced HEK Blue Cellular Assay. The note with it: HEK Blue TNFα reporter cells, TNF-α 100 pg/ml, 24 hrs at 37° C., secreted alkaline phosphatase (QUANTI-Blue, 620 nm). Type of experiment: cell-based. The procedure:
TNF-α Induced HEK Bluet Cellular Assay
Test articles were diluted in DMSO and serially diluted into 384 well assay plate (Corning 3765), at final concentrations ranging from […] to 0.5 nM. HEK Blue™ TNFα reporter cells were added at a final density of 10,000 cell per well in assay media [DMEM (Gibco, cat #21063-029), 10% fetal bovine serum (ExcelBio, cat #FND500), 1% Penicillin-Streptomycin (Solarbio, cat #P1400-100]. TNF-α (R&D 210-TA-020/CF) was then added to the assay plate at a final concentration of 100 pg/ml. This plate was then incubated for 24 hrs at 37° C. and 5% CO2. Secreted alkaline phosphatase expression was then measured using QUANTI-Blue™ (Invivogen), according to manufacturer instructions and read on an Envision microplate reader at 620 nm.
Inhibition data for test compound over a range of concentration was plotted as percentage inhibition of the test compound (100%=maximum inhibition). IC50 values were determined after correcting for background [(sample read-mean of low control)/(mean of high control-mean of low control)] where by the low control is DMSO without stimulation and high control is DMSO with stimulation. The IC50 is defined as the concentration of test compound which produces 50% inhibition and was quantified using the 4 parameter logistic equation to fit the data.

TNF-α, sequence (P01375 77-233 limits assumed): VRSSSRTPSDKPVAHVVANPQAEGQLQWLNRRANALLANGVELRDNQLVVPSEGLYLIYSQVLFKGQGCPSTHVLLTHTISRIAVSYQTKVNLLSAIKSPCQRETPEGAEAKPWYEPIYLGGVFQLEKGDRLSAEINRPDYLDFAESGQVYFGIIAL

The IC50 is the concentration needed to halve the response being measured. Low readings indicate greater potency, high ones weaker potency. The molecule `CC[C@@H](Nc1c(Cl)c(C)nc2cc(F)c(-c3cnc(P(C)(C)=O)nc3)nc12)c1cccc(C#N)c1` [Example 47, 3-[(1R)-1-({3-chloro-6-[2-(dimethylphosphoryl)pyrimidin-5-yl]-7-fluoro-2-methyl-1,5-naphthyridin-4-yl}amino)propyl]benzonitrile] showed an IC50 of no more than 1000 nM.
The molecule `CC[C@@H](Nc1c(Cl)c(C)nc2cc(F)c(-c3ccc(P(C)(C)=O)nc3)nc12)c1cccc(C#N)c1` [Example 48, 3-[(1R)-1-({3-chloro-6-[6-(dimethylphosphoryl)pyridin-3-yl]-7-fluoro-2-methyl-1,5-naphthyridin-4-yl}amino)propyl]benzonitrile] gave an IC50 of no more than 100 nM.
Turning to `Cc1nc2cc(F)c(-c3cnc(P4(=O)CCCC4)nc3)nc2c(N[C@H](C)c2cc(C#N)ccc2F)c1Cl` [Example 49, 3-[(1R)-1-({3-chloro-7-fluoro-2-methyl-6-[2-(1-oxo-1lambda5-phospholan-1-yl)pyrimidin-5-yl]-1,5-naphthyridin-4-yl}amino)ethyl]-4-fluorobenzonitrile], the concentration for half-maximal inhibition (IC50) is no more than 100 nM.
For the molecule `Cc1nc2cc(F)c(-c3ccc(P(C)(C)=O)nc3)nc2c(N[C@H](C)c2cccc(F)c2F)c1Cl` [Example 50, 3-chloro-N-[(1R)-1-(2,3-difluorophenyl)ethyl]-6-[6-(dimethylphosphoryl)pyridin-3-yl]-7-fluoro-2-methyl-1,5-naphthyridin-4-amine], the IC50 was no more than 100 nM.
For `Cc1nc2cc(F)c(-c3ccc(P(C)(C)=O)nc3)nc2c(N[C@@H](C)c2cc(F)ccc2F)c1Cl` [Example 51, 3-chloro-N-[(1S)-1-(2,5-difluorophenyl)ethyl]-6-[6-(dimethylphosphoryl)pyridin-3-yl]-7-fluoro-2-methyl-1,5-naphthyridin-4-amine] the value was no more than 100 nM; for `Cc1nc2cc(F)c(-c3ccc(P(C)(C)=O)nc3)nc2c(N[C@H](C)c2c(F)cccc2F)c1Cl` [Example 52, 3-chloro-N-[(1R)-1-(2,6-difluorophenyl)ethyl]-6-[6-(dimethylphosphoryl)pyridin-3-yl]-7-fluoro-2-methyl-1,5-naphthyridin-4-amine], no more than 1000 nM; for `Cc1nc2cc(F)c(-c3ccc(P(C)(C)=O)nc3)nc2c(N[C@H](C)c2cc(F)ccc2F)c1Cl` [Example 53, 3-chloro-N-[(1R)-1-(2,5-difluorophenyl)ethyl]-6-[6-(dimethylphosphoryl)pyridin-3-yl]-7-fluoro-2-methyl-1,5-naphthyridin-4-amine], no more than 1000 nM.
The molecule `Cc1nc2cc(F)c(-c3ccc(P(C)(C)=O)nc3)nc2c(N[C@@H](C)c2c(F)cccc2F)c1Cl` [Example 54, 3-chloro-N-[(1S)-1-(2,6-difluorophenyl)ethyl]-6-[6-(dimethylphosphoryl)pyridin-3-yl]-7-fluoro-2-methyl-1,5-naphthyridin-4-amine] displayed a half-inhibitory concentration (IC50) of no more than 1000 nM.
In the case of `Cc1nc2cc(F)c(-c3cnc(P(C)(C)=O)nc3)nc2c(N[C@H](C)c2ccccc2C(F)(F)F)c1Cl` [Example 55, 3-chloro-6-[2-(dimethylphosphoryl)pyrimidin-5-yl]-7-fluoro-2-methyl-N-[(1R)-1-[2-(trifluoromethyl)phenyl]ethyl]-1,5-naphthyridin-4-amine], the IC50 was in the range of 10000 to 30000 nM.
With `Cc1nc2cc(F)c(-c3ccc(OCP(C)(C)=O)nc3)nc2c(N[C@H](C)c2ccccc2F)c1Cl` [Example 56, 3-chloro-6-{6-[(dimethylphosphoryl)methoxy]pyridin-3-yl}-7-fluoro-N-[(1R)-1-(2-fluorophenyl)ethyl]-2-methyl-1,5-naphthyridin-4-amine], the IC50 was no more than 100 nM.
Regarding `CC[P@@](C)(=O)c1ccc(-c2nc3c(N[C@H](C)c4cc(C#N)ccc4F)c(Cl)c(C)nc3cc2F)cn1` [Example 57], the IC50 was no more than 100 nM.
With `Cc1nc2cc(F)c(-c3ccc(P(C)(C)=O)nc3)nc2c(N[C@H](CO)c2ccccc2F)c1Cl` [Example 59, (2S)-2-({3-chloro-6-[6-(dimethylphosphoryl)pyridin-3-yl]-7-fluoro-2-methyl-1,5-naphthyridin-4-yl}amino)-2-(2-fluorophenyl)ethanol], the IC50 lay within 10000 to 30000 nM.
In turn, `Cc1nc2cc(F)c(-c3ccc(P(C)(C)=O)nc3)nc2c(N[C@@H](CO)c2ccccc2F)c1Cl` [Example 60, (2R)-2-({3-chloro-6-[6-(dimethylphosphoryl)pyridin-3-yl]-7-fluoro-2-methyl-1,5-naphthyridin-4-yl}amino)-2-(2-fluorophenyl)ethanol] yielded a half-maximal inhibitory concentration (IC50) of 10000 to 30000 nM.
Consider `Cc1cc(P(C)(C)=O)ncc1-c1nc2c(N[C@H](C)c3cc(C#N)ccc3F)c(Cl)c(C)nc2cc1F` [Example 61, 3-[(1R)-1-({3-chloro-6-[6-(dimethylphosphoryl)-4-methylpyridin-3-yl]-7-fluoro-2-methyl-1,5-naphthyridin-4-yl}amino)ethyl]-4-fluorobenzonitrile], for which the IC50 is no more than 1000 nM.
In the case of `Cc1cc(P(C)(C)=O)ncc1-c1nc2c(N[C@H](C)c3ccccc3F)c(Cl)c(C)nc2cc1F` [Example 62, 3-chloro-6-[6-(dimethylphosphoryl)-4-methylpyridin-3-yl]-7-fluoro-N-[(1R)-1-(2-fluorophenyl)ethyl]-2-methyl-1,5-naphthyridin-4-amine], the 50% inhibitory concentration (IC50) is no more than 1000 nM.
`Cc1nc2cc(F)c(-c3cnc(P(C)(C)=O)nc3)cc2c(N[C@H](C)c2cccc(F)c2F)c1Cl` [Example 65, 3-chloro-N-[(1R)-1-(2,3-difluorophenyl)ethyl]-6-[2-(dimethylphosphoryl)pyrimidin-5-yl]-7-fluoro-2-methylquinolin-4-amine] registered a half-maximal inhibitory concentration (IC50) of no more than 1000 nM.
For `Cc1cn(-c2ccc(F)c([C@@H](C)Nc3c(Cl)c(C)nc4cc(F)c(-c5ccc(P(C)(C)=O)nc5)nc34)c2)cn1` [Example 66, 3-chloro-6-[6-(dimethylphosphoryl)pyridin-3-yl]-7-fluoro-N-[(1R)-1-[2-fluoro-5-(4-methylimidazol-1-yl)phenyl]ethyl]-2-methyl-1,5-naphthyridin-4-amine], the IC50 was no more than 1000 nM.
Molecule `Cc1nc2cc(F)c(-c3ccc(P(C)(C)=O)nc3)cc2c(N[C@H](C)c2cccc(F)c2F)c1Cl` [Example 67, 3-chloro-N-[(1R)-1-(2,3-difluorophenyl)ethyl]-6-[6-(dimethylphosphoryl)pyridin-3-yl]-7-fluoro-2-methylquinolin-4-amine] yielded a half-inhibitory concentration (IC50) of no more than 100 nM.
The figure for `CC[C@H](Nc1c(Cl)c(C)nc2cc(F)c(-c3ccc(P(C)(C)=O)nc3)nc12)c1ncccc1F` [Example 68, (S)-(5-(7-chloro-3-fluoro-8-((1-(3-fluoropyridin-2-yl)propyl)amino)-6-methyl-1,5-naphthyridin-2-yl)pyridin-2-yl)dimethylphosphine oxide] is no more than 100 nM; for `CC[C@@H](Nc1c(Cl)c(C)nc2cc(F)c(-c3ccc(P(C)(C)=O)nc3)nc12)c1ncccc1F` [Example 69, (R)-(5-(7-chloro-3-fluoro-8-((1-(3-fluoropyridin-2-yl)propyl)amino)-6-methyl-1,5-naphthyridin-2-yl)pyridin-2-yl)dimethylphosphine oxide] it is no more than 1000 nM; for `Cc1nc2cc(F)c(-c3ccc(P(C)(C)=O)nc3)nc2c(N[C@@H](c2ccccc2F)C(F)(F)F)c1Cl` [Example 70, 3-chloro-6-[6-(dimethylphosphoryl)pyridin-3-yl]-7-fluoro-2-methyl-N-[(1S)-2,2,2-trifluoro-1-(2-fluorophenyl)ethyl]-1,5-naphthyridin-4-amine] it is no more than 100 nM.
